Source: paper PMC9858427, “Design, synthesis and biological evaluation of 2-((4-sulfamoylphenyl)amino)-pyrrolo[2,3-d]pyrimidine derivatives as CDK inhibitors” (Journal of Enzyme Inhibition and Medicinal Chemistry, 2023)
“Also recorded” adds a separate entry of the source. Like-named read-outs stand apart in the source and are kept apart here.

Legend:
BxPC-3 = assay: MTT proliferation assay in BxPC-3 cells; assay type: cell-based; details: Homo sapiens, 72 h drug exposure
Experimental: The human pancreatic carcinoma MIA PaCa-2 was purchased from China Centre for Type Culture Collection, AsPC-1 and BxPC-3 cell Lines were purchased from Cell Centre of the Institute of Basic Medical Sciences, Chinese Academy of Medical Sciences and Peking Union Medical College. PANC-1 was kindly provided by Nankai Hospital (Tianjin, China). These cancer cell lines were cultured according to the manufacturer’s instruction.
(§1) Cells were planted in 96-well plates at a density of 3000–4000 cells per well and incubated at 37 °C in a humidified CO2 incubator for 24 h. Then 3-fold diluted concentrations of tested compound were added respectively which was dissolved by DMSO in the ratio of 1:1000. After indicated incubation period, MTT was added to each well and incubated for 4 h at 37 °C. Then, the supernatant was discarded gently, and the precipitate was dissolved in 100 µL of DMSO in each well. The absorbance (A) at 570 nm was detected with a microplate reader (Multiskan MK3; Thermo Fisher Scientific, MA, USA). Vehicle-treated cells were served as the control for the calculation of relative cell viability (%) of treated group at single concentration. IC50 value was calculated directly from the inhibition curve of serial dilution of test compound and was expressed as mean ± SD using the SPSS statistical software (SPSS17.0 Inc., Chicago, IL, USA).

CDK9/cyclinT1 = CDK9/cyclinT1 (Homo sapiens, UniProt P50750); assay: CDK9/cyclinT1 Lance Ultra Assay, single concentration screen; assay type: biochemical; details: 50 nM, ATP concentration at Km, read-out: CDK9 inhibitory rate (%) @ 50nM
Experimental: (§2) CDK kinase activity (IC50 values and inhibitory rate at single concentration) was measured using the kinase profiling services (Shanghai ChemPartner Co., Ltd). Compounds were sent to ChemPartner as a solution in DMSO at concentration of 10 mM.

CDK7 = CDK7 (Homo sapiens, UniProt P50613); assay: CDK7 kinase IC50, Mobility shift assay; assay type: biochemical
Experimental: as §2

MIA PaCa-2 cells [1] = assay: Cell cycle analysis by PI staining and flow cytometry; assay type: cell-based, human; details: 24 h treatment
Experimental: (§3) MIA PaCa-2 cells were incubated with test compound at given concentration for indicated time in 6 well plates. The cells were collected and washed with cold PBS for two times. For cell cycle analysis, cells were fixed with 1 ml of 70% ethanol at −20 °C overnight then re-suspended with 400 µL binding buffer at density of 10^6 cells/mL, with PI staining for 30 min at room temperature. DNA contents were analysed by a BD Accuri C6 flow cytometry (BD Biosciences, Mountain View, CA, USA). For cell apoptosis analysis, after centrifugation and removal of the supernatants, cells were resuspended in 500 µL of 1 ×binding buffer which was then added to 5 µL of annexin V-FITC and incubated at room temperature for 10 min. After adding 10 µL of PI the cells were incubated at room temperature for another 10 min, and their fluorescence intensity evaluated by a BD Accuri C6 (BD Biosciences, Mountain View, CA, USA).

MIA PaCa-2 cells [2] = assay: Apoptosis analysis by PI and annexin V-FITC staining and flow cytometry; assay type: cell-based, human; details: 24 h treatment
Experimental: as §3

[3] = test system: phosphorylation of Rb and RNA polymerase II, Mcl-1 and c-Myc protein; assay: Immunoblots of CDK downstream proteins in MIA PaCa-2 cells; assay type: cell-based, human; details: 6 h exposure
Experimental: Harvested cells were lysed in 20 mmol/L Tris pH 7.7, 100 mmol/L NaCl, 20 mmol/L β-glycerophosphate, 5 mmol/L MgCl2, 1 mmol/L NaF, 0.1% Triton X-100, 5% glycerol plus freshly added 1 mmol/L DTT, 0.1 µmol/L okadaic acid, 1 mmol/L sodium vanadate, and cOmplete Mini Protease Inhibitor Tablets (Roche, #11836170001). For SDS-PAGE, equal amounts of protein/lane were loaded. After gel transfer onto PDV membrane, immunoblots were performed using the following antibodies: CDK9 (Cell Signalling Technology #C12FT; 1:1,000), RNA polymerase II (Abcam #ab5131; 1:1000), MCL-1 (Abcam #Y37; […] (Cell Signalling Technology #d2b12; 1:1,000), c-Myc (Abcam #YB69; 1:1000). Secondary antibodies were from Cell Signalling Technology (#7076 or #7074). ECL detection was performed.

MIA PaCa-2 cells [4] = assay: Cell viability after CDK9 knockdown by siRNA; assay type: cell-based, human; details: siCDK9 50 nM; compound 0.2 µM, 72 h
Experimental: as §1
Specific siRNAs against CDK9 (Catelog ID: SIGS0004694-1) were purchased from RiboBio (Guangdong, China) together with a scrambled siRNA. […] Approximately 48 h after transfection, the cells were analysed for protein expression by Western blot. […]

[5] = Drug concentration in tumour tissue and plasma of tumour-bearing mice; assay type: in vivo, BALB/C nude mice; details: for concentration at 1 h / concentration at 4 h: female, BALB/C nude, mouse, tumour-bearing mice (n = 3); for concentration at 1 h: 1.0 h after 30 mg/kg single oral dosing; for concentration at 4 h: 4.0 h after 30 mg/kg single oral dosing
Experimental: AsPC-1 (5 × 10^7) cells were injected subcutaneously into 5-week-old female BALB/C nude mice (Beijing Huafukang Bioscience CO. Inc, Beijing, China). After two weeks, mice were omogenizamised and treated with vehicle, gemcitabine (GCTB), or test compound. Blank solvent and test compound was administered by oral gavage (10 ml/kg) with once daily of five days and followed by 2 days off in each week, GCTB was given once a week by 50 mg/kg intraperitoneal injection. Mice were inspected daily for clinical signs, both tumour diameters and body weight were determined 3 times weekly. Tumour volumes were calculated according to the formula “tumor volume (V) = length × width^2/2”. Median TGI values were calculated as follows: TGI = 100 × [1-(Vtreated group at day20-Vtreated group at day1)/(Vvehicle group at day20-Vvehicle group at day1)]. Data were plotted as average with SD in the graphical representation of tumour growth. The p values obtained from the two-way ANOVA analysis. Meanwhile, main organs of mice were collected, formalin-fixed and paraffin-embedded for pathological analysis by H&E dyeing. For drug concentration determination, blood and tumour tissues were collected at indicated time after single administration. Standard curve of test compound was established in the acquisition mode of SIM using a SHIMADZU LC-MS instrument. Blood kept in anticoagulant tube coated with heparin sodium was centrifuged to provide the supernatant, which was followed by added with 3-fold acetonitrile to precipitate plasma protein. After centrifugation at 10 × 10^3 for 5 min, the supernatant was injected directedly into LC-MS instrument for quantification of drug concentration. As for tumour tissues, omogenizationation (Precellys Evolution) was done after weighed accurately and added with 3-fold saline. After centrifugation under same condition as plasma samples, supernatant was separated and injected into LC-MS for quantification.

[6] = plasma, read-out: Drug concentration (µM) Plasma
[7] = read-out: Drug concentration (µM) Tumour

CDK9/cyclinT1, sequence (P50750 whole entry): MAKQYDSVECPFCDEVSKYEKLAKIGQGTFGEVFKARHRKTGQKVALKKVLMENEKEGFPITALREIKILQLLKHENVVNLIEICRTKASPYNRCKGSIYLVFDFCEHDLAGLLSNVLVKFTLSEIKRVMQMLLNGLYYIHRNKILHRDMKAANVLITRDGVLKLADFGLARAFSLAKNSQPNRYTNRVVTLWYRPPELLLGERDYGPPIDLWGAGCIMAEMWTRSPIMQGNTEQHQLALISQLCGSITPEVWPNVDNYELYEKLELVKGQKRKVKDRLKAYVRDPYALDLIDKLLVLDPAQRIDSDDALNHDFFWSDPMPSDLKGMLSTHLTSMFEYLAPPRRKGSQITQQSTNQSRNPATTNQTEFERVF
CDK9/cyclinT1, sequence (O60563 whole entry partner): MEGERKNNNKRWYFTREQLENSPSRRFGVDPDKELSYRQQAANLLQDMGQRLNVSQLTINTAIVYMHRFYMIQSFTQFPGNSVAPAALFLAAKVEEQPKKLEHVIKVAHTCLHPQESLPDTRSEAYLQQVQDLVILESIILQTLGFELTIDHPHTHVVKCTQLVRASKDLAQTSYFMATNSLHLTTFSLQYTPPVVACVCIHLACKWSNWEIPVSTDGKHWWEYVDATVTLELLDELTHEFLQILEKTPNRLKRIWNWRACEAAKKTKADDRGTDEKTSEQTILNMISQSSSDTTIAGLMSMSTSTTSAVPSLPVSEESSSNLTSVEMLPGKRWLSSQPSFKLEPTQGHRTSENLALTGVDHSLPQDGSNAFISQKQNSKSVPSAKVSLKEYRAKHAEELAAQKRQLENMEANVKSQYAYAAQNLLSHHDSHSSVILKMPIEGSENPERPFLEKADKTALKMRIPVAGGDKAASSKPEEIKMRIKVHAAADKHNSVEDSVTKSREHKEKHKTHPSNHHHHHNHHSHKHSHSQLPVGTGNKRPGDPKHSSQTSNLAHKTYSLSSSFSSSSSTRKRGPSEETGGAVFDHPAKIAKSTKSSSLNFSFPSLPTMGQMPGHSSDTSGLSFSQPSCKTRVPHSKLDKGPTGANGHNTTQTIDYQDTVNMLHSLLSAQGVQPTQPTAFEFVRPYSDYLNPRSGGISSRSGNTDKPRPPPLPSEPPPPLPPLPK
CDK7, sequence (P50613 whole entry): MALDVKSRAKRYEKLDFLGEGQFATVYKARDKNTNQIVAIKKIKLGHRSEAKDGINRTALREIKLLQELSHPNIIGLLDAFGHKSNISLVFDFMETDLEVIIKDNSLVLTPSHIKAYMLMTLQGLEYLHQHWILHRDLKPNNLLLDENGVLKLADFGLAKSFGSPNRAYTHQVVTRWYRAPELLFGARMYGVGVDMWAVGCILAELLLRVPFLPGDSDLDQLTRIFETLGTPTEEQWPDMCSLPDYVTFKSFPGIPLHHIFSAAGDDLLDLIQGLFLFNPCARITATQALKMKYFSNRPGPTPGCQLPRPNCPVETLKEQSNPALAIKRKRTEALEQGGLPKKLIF
CDK7, sequence (P51946 whole entry partner): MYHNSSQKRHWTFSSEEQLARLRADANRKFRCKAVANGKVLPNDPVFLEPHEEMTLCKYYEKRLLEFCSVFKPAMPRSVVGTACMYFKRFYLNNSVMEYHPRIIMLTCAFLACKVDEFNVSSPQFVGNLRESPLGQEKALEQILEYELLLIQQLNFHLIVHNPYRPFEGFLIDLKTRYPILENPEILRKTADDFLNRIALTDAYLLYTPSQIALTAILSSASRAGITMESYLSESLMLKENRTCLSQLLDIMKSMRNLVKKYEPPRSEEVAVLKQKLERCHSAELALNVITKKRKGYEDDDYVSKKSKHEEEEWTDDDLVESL
CDK7, sequence (P51948 whole entry partner): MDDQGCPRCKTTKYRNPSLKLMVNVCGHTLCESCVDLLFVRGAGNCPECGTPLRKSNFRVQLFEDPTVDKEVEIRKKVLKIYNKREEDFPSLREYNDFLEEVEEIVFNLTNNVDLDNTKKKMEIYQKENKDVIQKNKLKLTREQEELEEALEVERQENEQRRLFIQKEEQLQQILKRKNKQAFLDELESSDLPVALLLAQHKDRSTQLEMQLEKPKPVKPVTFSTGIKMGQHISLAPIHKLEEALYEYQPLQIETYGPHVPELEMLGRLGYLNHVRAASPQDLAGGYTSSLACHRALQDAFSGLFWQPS

Compound: CN(C)C(=O)c1cc2cnc(Nc3ccc(S(N)(=O)=O)cc3)nc2n1C1CCCC1 [compound 2g, 7-Cyclopentyl-N,N-dimethyl-2-((4-sulfamoylphenyl)amino)-7H-pyrrolo[2,3-d]pyrimidine-6-carboxamide]
- IC50 (BxPC-3): 0.226 ± 0.065 µM
- inhibition at 0.05 µM (CDK9/cyclinT1): 97.8%
- IC50 (CDK7): > 10000 nM
- effect on cell cycle (MIA PaCa-2 cells [1]; 0.1 µM): cell cycle arrest at G1 phase
- effect on cell cycle (MIA PaCa-2 cells [1]; 0.3 and 1.0 µM): modest G2/M-arrested effect
- number of late apoptotic cells (MIA PaCa-2 cells [2]): increased in a dose-dependent manner
- Mcl-1 and c-Myc protein level [3]: down-regulation of Mcl-1 and c-Myc protein
- phosphorylation of Rb and RNA polymerase II [3]: down-regulation of phosphorylated Rb protein; also recorded: inhibited the phosphorylation of Rb and RNA polymerase II
- sensitivity of MIA PaCa-2 cells to compound after downregulation of CDK9 by siRNA (MIA PaCa-2 cells [4]): significantly decreased
- drug concentration in plasma and tumour tissue relative to cellular IC50 value ([5]; 30 mg/kg single oral dosing, both plasma and tumour tissue): higher than 2 fold
- concentration at 1 h [5, 6]: 7.46 ± 1.95 µM
- concentration at 4 h [5, 6]: 0.53 ± 0.41 µM
- concentration at 1 h [5, 7]: 3.13 ± 0.64 µM
- concentration at 4 h [5, 7]: 0.48 ± 0.34 µM
